In patent EP0649656B1 (priority 1993, dated 1995):
Counter-ions that a name gives are not always drawn.

Columns and labels:
[1] = system: virus Herpès simplex type I; assay: In vivo cutaneous HSV I infection in guinea pigs, local application; design: species or system cobayes albinos (Dunkin-Hartley, IFFA-CREDO); conditions: for infection herpétique cutanée / lésions cutanées: cobayes, application locale deux fois par jour pendant 3 jours, observations jours 5 à 8; for % moyen d'activité: moyenne entre le jour 5 et le jour 8
Protocol: L'expérimentation a été réalisée en application locale sur des cobayes albinos (Dunkin-Hartley, IFFA-CREDO) auxquels on a préalablement inoculé par scarification le virus Herpès simplex type I. Sur ces scarifications, on a appliqué 0,1 ml d'une solution de virus HSV I titrant 10 000 DI50 pour 100 µl. Un flanc des animaux a servi de témoin. Le traitement a été effectué deux fois par jour pendant 3 jours, la première application ayant lieu 18 h après l'inoculation.
Les paramètres retenus pour déterminer la gravité des lésions cutanées sont : érythèmes, indurations, nombre et taille des vésicules, aires d'infection et présence ou absence de virus. Les observations sont réalisées 5, 6, 7 et 8 jours après l'inoculation.

[2] = cited from earlier work
[3] = system: virus HSV I; assay: Anti-viral activity in HSV I-inoculated embryonic lung fibroblast culture; format: cell-based; conditions: HSV I 100 DE50 pour 10 µl, fibroblastes de poumon embryonnaire MCR5, observation 24h et 48h; "-" = absence d'activité
Protocol: (§1) Dans un premier temps, on a donc déterminé l'activité virucide des différents composés testés par mise en contact du virus avec ces composés. Puis on a déterminé l'activité anti-virale des composés testés en inoculant le virus (sous la forme d'une suspension préalablement diluée dans du milieu de Hanks de manière à avoir une concentration en virus de 100 DE50 pour 10 µl de suspension) à une culture de fibroblastes de poumon embryonnaire (cellules commercialisées par la société Bio-Mérieux sous la référence MCR5), puis en traitant la culture cellulaire, inoculée par le virus, par les composés à tester, dilués également dans du milieu de Hanks. Les plaques de cultures cellulaires ont ensuite été observées au microscope inversé après 24h et 48h d'inoculation, ainsi que des cultures témoins non-inoculées et des virus témoins incubés sans composés. Les résultats sont rassemblés dans le tableau suivant: […]

[4] = system: infections herpétiques buccales et vulvaires; assay: Human clinical use in buccal and vulvar herpetic infections; format: in vivo, humaine
[5] = system: zonas; assay: Human clinical use in zona; format: in vivo; conditions: clinique humaine
[6] = system: virus HSV I; assay: Virucidal activity by contact of the virus with the compounds, infra-cytotoxic doses; format: cell-based; conditions: doses infra-cytotoxiques, "-" = absence d'activité
Protocol: as §1

Oc1cccc2cccnc12 [8-HQS, sulfate d'hydroxy-8 quinoléine]
infection herpétique cutanée / lésions cutanées [1]: aucun effet | % moyen d'activité ([1]; concentration 0,2 %): 0,0% | solubilité dans l'alcool [2]: faiblement soluble | solubilité dans l'eau [2]: soluble | solubilité dans l'éther [2]: insoluble

Nc1nc2c(ncn2COCCO)c(=O)[nH]1 [Acyclovir, 2-amino-1,9-dihydro-9-[(2-hydroxyethoxy)methyl]-6H-purin-6-one]
% moyen d'activité ([1]; concentration 1,0 %): 55,2%

acriflavine [ACF]
Concentrations minimales activité anti-virale [3]: 2 µg/mL | infection herpétique cutanée / lésions cutanées [1]: réduisent significativement | % moyen d'activité ([1]; concentration 0,2 %): 0,0% | % moyen d'activité ([1]; concentration 1,0 %): 44,5% | % moyen d'activité ([1]; concentration 2,0 %): 81,5% | % moyen d'activité ([1]; concentration 4,0 %): 95,2% | résultats en clinique humaine [4]: résultats favorables | éruptions vésiculeuses et névralgies des territoires cutanés infectés [5]: réduit significativement | Concentrations minimales activité virucide [6]: 1 µg/mL | solubilité dans l'alcool [2]: partiellement soluble | solubilité dans l'eau [2]: soluble | solubilité dans l'éther [2]: pratiquement insoluble
